Assay results from patent US20050148586A1 (priority 2004, published 2005).

Molecular target: T1, glycogen phosphorylase (from rabbit muscle, Sigma P1261) (Oryctolagus cuniculus, UniProt P00489)
T1 construct: glycogen phosphorylase (from rabbit muscle, Sigma P1261); purchased Sigma P1261; host or cells: rabbit muscle (tissue-derived)
T1 sequence (P00489 2-843 limits assumed): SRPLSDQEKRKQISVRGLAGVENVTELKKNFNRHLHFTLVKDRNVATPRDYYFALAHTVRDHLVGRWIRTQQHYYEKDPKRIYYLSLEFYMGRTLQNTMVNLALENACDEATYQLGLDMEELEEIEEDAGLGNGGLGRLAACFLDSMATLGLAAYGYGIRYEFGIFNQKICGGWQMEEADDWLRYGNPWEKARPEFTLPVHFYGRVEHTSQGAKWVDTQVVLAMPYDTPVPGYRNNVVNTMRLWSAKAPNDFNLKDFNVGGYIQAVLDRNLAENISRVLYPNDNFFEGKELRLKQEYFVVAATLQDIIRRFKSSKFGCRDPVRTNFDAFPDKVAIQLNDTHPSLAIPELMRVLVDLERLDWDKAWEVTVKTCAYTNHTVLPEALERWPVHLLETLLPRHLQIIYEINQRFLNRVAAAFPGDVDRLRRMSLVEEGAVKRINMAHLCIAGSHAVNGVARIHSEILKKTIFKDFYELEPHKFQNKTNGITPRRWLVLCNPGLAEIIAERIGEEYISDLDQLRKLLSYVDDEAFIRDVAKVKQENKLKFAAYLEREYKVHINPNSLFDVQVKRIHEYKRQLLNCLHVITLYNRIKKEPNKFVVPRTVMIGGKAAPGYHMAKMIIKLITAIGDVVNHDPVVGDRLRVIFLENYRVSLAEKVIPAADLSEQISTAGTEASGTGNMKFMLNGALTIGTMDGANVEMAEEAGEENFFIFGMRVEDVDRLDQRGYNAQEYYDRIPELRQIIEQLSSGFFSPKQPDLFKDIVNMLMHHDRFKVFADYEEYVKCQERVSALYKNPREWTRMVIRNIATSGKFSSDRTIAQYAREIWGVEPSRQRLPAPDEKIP
Assay: Enzyme Inhibition Assay (malachite green phosphate readout)
Assay type: biochemical
Conditions: for IC50: +/−.05; for inhibition at 20 µM: @ 20 μM test compound, percent inhibition (±10%) of enzymatic activity
Protocol: All samples contain 2% DMSO, and the background lacks enzyme but contains all substrates. The reaction was stopped by the addition of […] of a 1N HCl solution containing 10 mg/ml ammonium molybdate and 0.38 mg/ml malachite green. After a 15-minute incubation period to allow the colored reaction (a quantitative measurement of inorganic phosphate) to develop, the colored wells were read at 650 nm. Data was reported as percent inhibition (±10%) of enzymatic activity at a specified concentration.

| Compound | IC50 [nM] | inhibition at 20 µM [%] |
| --- | --- | --- |
| Cn1c(=O)c(Nc2ccc(C(=O)Nc3ccno3)cc2)nc2ccccc21 [Compound 7, N-Isoxazol-5-yl-4-(4-Methyl-3-oxo-3,4-dihydro-quinoxalin-2ylamino)-benzamide] | 120 | 92 |
| Cn1ccc(NC(=O)c2ccc(Nc3nc4ccccc4n(C)c3=O)cc2)n1 [Compound 8] | 890 | 95 |
| Cn1c(=O)c(Nc2ccc(C(=O)Nc3ccsc3)cc2)nc2ccccc21 [Compound 9, 4-(4-Methyl-3-oxo-3,4-dihydro-quinoxalin-2ylamino)-N-thiophen-3-yl-benzamide] | 710 | 93 |
| Cn1c(=O)c(Nc2ccc(C(=O)Nc3cnccn3)cc2)nc2ccccc21 [Compound 12, 4-(4-Methyl-3-oxo-3,4-dihydro-quinoxalin-2ylamino)-N-pyrazin-2-yl-benzamide] | 1300 | 68 |
| Cn1c(=O)c(Nc2ccc(NC(=O)c3cccnc3)cc2)nc2ccccc21 [Compound 16, N-[4-(4-Methyl-3-oxo-3,4-dihydro-quinoxalin-2ylamino)-phenyl]-nicotinamide] | 800 | 97 |
| Cn1c(=O)c(Nc2ccc(NC(=O)c3cccs3)cc2)nc2ccccc21 [Compound 17, Thiophene-2-carboxylic acid[4-(4-Methyl-3-oxo-3,4-dihydro-quinoxalin-2ylamino)-phenyl]-amide] | 1500 | 70 |
| Cn1c(=O)c(Nc2ccc(NC(=O)c3ccco3)cc2)nc2ccccc21 [Compound 18, Furan-2-carboxylic acid[4-(4-Methyl-3-oxo-3,4-dihydro-quinoxalin-2ylamino)-phenyl]-amide] | 2500 | 80 |
| Cn1cccc1C(=O)Nc1ccc(Nc2nc3ccccc3n(C)c2=O)cc1 [Compound 19, 1-Methyl-1H-pyrrole-2-carboxylic acid[4-(4-Methyl-3-oxo-3,4-dihydro-quinoxalin-2ylamino)-phenyl]-amide] | 5000 | 77 |
| Cn1c(=O)c(Nc2ccc(-c3ccc[nH]3)cc2)nc2ccccc21 [Compound 22, 1-Methyl-3-[4-(1H-pyrrol-2-yl)-phenylamino]-1H-quinoxalin-2-one] | 2500 | 92 |
| Cn1c(=O)c(Nc2ccc(-n3ccnc3)cc2)nc2ccccc21 [Compound 23, 3-(4-imidazol-1-yl-phenylamino)-1-methyl-1H-quinoxalin-2-one] | 2500 | 82 |
| CCn1c(=O)c(Nc2ccc(C(=O)Nc3ccon3)cc2)nc2ccccc21 [Compound 28, N-Isoxazol-3-yl-4-(4-Ethyl-3-oxo-3,4-dihydro-quinoxalin-2ylamino)-benzamide] | 120 | 100 |
| CCn1c(=O)c(Nc2ccc(C(=O)Nc3cc[nH]n3)cc2)nc2ccccc21 [Compound 29, 4-(4-Ethyl-3-oxo-3,4-dihydro-quinoxalin-2ylamino)-N-(1H-pyrazol-3-yl)-benzamide] | 460 | 100 |
| CCn1c(=O)c(Nc2ccc(C(=O)Nc3nccs3)cc2)nc2ccccc21 [Compound 30, 4-(4-Ethyl-3-oxo-3,4-dihydro-quinoxalin-2ylamino)-N-thiazol-2-yl-benzamide] | 830 | 90 |
| Cn1c(=O)c(Nc2ccc(C(=O)Nc3ccon3)cc2)nc2cccnc21 [Compound 36, N-Isoxazol-3-yl-4-(4-Methyl-3-oxo-3,4-dihydro-pyrido[2,3-b]pyrazin-2-ylamino)-benzamide] | 320 | 96 |
| O=C(NCc1cccs1)c1ccc(Nc2nc3ccccc3n(CCO)c2=O)cc1 [Compound 51] | 300 | 99 |
| O=C(Nc1ccon1)c1ccc(Nc2nc3ccccc3n(CCN3CCOCC3)c2=O)cc1 [Compound 55, N-Isoxazol-3-yl-4-[4-(2-Morpholin-4-yl-ethyl)-3-oxo-3,4-dihydro-quinoxalin-2ylamino]-bezamide] | 260 | 97 |
| COC(=O)c1ccc(Nc2nc3ccccc3n(CCN3CCOCC3)c2=O)cc1 [Compound 57] | 1800 | 89 |
| O=C(NCc1cccs1)c1ccc(Nc2nc3ccccc3n(CCN3CCCCC3)c2=O)cc1 [Compound 62] |  | 95 |
| CN(C)CCn1c(=O)c(Nc2ccc(C(=O)NCc3cccs3)cc2)nc2ccccc21 [Compound 70] | 700 | 99 |
| O=C(O)Cn1c(=O)c(Nc2ccc(C(=O)NCc3cccs3)cc2)nc2ccccc21 [Compound 75, (2-Oxo-3-{4-[(thiophen-2ylmethyl)-carbamoyl]-phenylamino}-2H-quinoxalin-1-yl)-acetic acid] | 5700 | 77 |
| Cn1c(=O)c(Nc2ccc(C(=O)NCc3ccccc3)cc2)nc2ccccc21 [Compound 78, N-Benzyl-4-(4-Methyl-3-oxo-3,4-dihydro-quinoxalin-2ylamino)-benzamide] | 690 | 96 |
